According to ChEMBL document CHEMBL3885881, “DrugMatrix”:

Species on record: Rattus norvegicus
Assay: DrugMatrix - Regimen: Daily Repeat
Type: toxicity, organism-based, Sprague-Dawley
Set-up: regimen Daily Repeat, gender Male, age 6-8 weeks
Conditions: in vivo, po, route oral GAVAGE, vehicle 100 % WATER; for ABSOLUTE BASOPHIL / ABSOLUTE EOSINOPHIL / ABSOLUTE LYMPHOCYTE / ABSOLUTE MONOCYTE / ABSOLUTE SEGMENTED NEUTROPHIL / BASOPHIL / EOSINOPHIL / ERYTHROCYTE COUNT / HEMATOCRIT / HEMOGLOBIN / LEUKOCYTE COUNT / LYMPHOCYTE / MEAN CORPUSCULAR HEMOGLOBIN / MEAN CORPUSCULAR HEMOGLOBIN CONCENTRATION / MEAN CORPUSCULAR VOLUME / MONOCYTE / NEUTROPHIL / NUCLEATED RED BLOOD CELLS / PLATELET COUNT: tissue Blood; for ALANINE AMINOTRANSFERASE / ALBUMIN / ALKALINE PHOSPHATASE / ASPARTATE AMINOTRANSFERASE / BLOOD UREA NITROGEN / CARBON DIOXIDE / CHLORIDE / CHOLESTEROL / CREATINE PHOSPHOKINASE / CREATININE / GLUCOSE / LACTATE DEHYDROGENASE / LIPASE / PHOSPHORUS / POTASSIUM / SODIUM / TOTAL BILIRUBIN / TOTAL PROTEIN / URIC ACID: tissue Plasma
[1] = 0 mg/kg, 72 h, dose level Control, time 3 day
[2] = 0 mg/kg, 120 h, dose level Control, time 5 day
[3] = 0.3 mg/kg, 72 h, dose level Low, time 3 day

SMILES: Clc1cccc(Cl)c1N=C1NCCN1 [CLONIDINE]
- ABSOLUTE BASOPHIL [1]: 0 CELLS/uL
- ABSOLUTE EOSINOPHIL [1]: 24 CELLS/uL
- ABSOLUTE LYMPHOCYTE [1]: 13105 CELLS/uL
- ABSOLUTE MONOCYTE [1]: 76 CELLS/uL
- ABSOLUTE SEGMENTED NEUTROPHIL [1]: 2145 CELLS/uL
- BASOPHIL [1]: 0%
- EOSINOPHIL [1]: 0.17%
- ERYTHROCYTE COUNT [1]: 5.81 x10E6/uL
- HEMATOCRIT [1]: 35.6%
- HEMOGLOBIN [1]: 13.72 G/DL
- LEUKOCYTE COUNT [1]: 15.35 x10E3/uL
- LYMPHOCYTE [1]: 85.5%
- MEAN CORPUSCULAR HEMOGLOBIN [1]: 23.62 pg
- MEAN CORPUSCULAR HEMOGLOBIN CONCENTRATION [1]: 38.55 G/DL
- MEAN CORPUSCULAR VOLUME [1]: 61.23 fL
- MONOCYTE [1]: 0.5%
- NEUTROPHIL [1]: 13.83%
- NUCLEATED RED BLOOD CELLS [1]: 0 /100WBC
- PLATELET COUNT [1]: 1189.83 x10E3/uL
- ALANINE AMINOTRANSFERASE [1]: 48.67 u/L
- ALBUMIN [1]: 4.27 G/DL
- ALKALINE PHOSPHATASE [1]: 335 u/L
- ASPARTATE AMINOTRANSFERASE [1]: 86.5 u/L
- BLOOD UREA NITROGEN [1]: 14.33 mg/dL
- CARBON DIOXIDE [1]: 29.17 mmol/L
- CHLORIDE [1]: 99.83 MEQ/L
- CHOLESTEROL [1]: 71.83 mg/dL
- CREATINE PHOSPHOKINASE [1]: 506.83 u/L
- CREATININE [1]: 0.18 mg/dL
- GLUCOSE [1]: 162.17 mg/dL
- LACTATE DEHYDROGENASE [1]: 264.5 u/L
- LIPASE [1]: 9.67 u/L
- PHOSPHORUS [1]: 11.92 mg/dL
- POTASSIUM [1]: 6.55 MEQ/L
- SODIUM [1]: 141.53 MEQ/L
- TOTAL BILIRUBIN [1]: 0.18 mg/dL
- TOTAL PROTEIN [1]: 5.87 G/DL
- URIC ACID [1]: 1.67 mg/dL
- ABSOLUTE BASOPHIL [2]: 0 CELLS/uL
- ABSOLUTE EOSINOPHIL [2]: 25.33 CELLS/uL
- ABSOLUTE LYMPHOCYTE [2]: 15680 CELLS/uL
- ABSOLUTE MONOCYTE [2]: 92.33 CELLS/uL
- ABSOLUTE SEGMENTED NEUTROPHIL [2]: 2102.33 CELLS/uL
- BASOPHIL [2]: 0%
- EOSINOPHIL [2]: 0.17%
- ERYTHROCYTE COUNT [2]: 6 x10E6/uL
- HEMATOCRIT [2]: 35.55%
- HEMOGLOBIN [2]: 14.12 G/DL
- LEUKOCYTE COUNT [2]: 17.9 x10E3/uL
- LYMPHOCYTE [2]: 87.33%
- MEAN CORPUSCULAR HEMOGLOBIN [2]: 23.65 pg
- MEAN CORPUSCULAR HEMOGLOBIN CONCENTRATION [2]: 39.77 G/DL
- MEAN CORPUSCULAR VOLUME [2]: 59.52 fL
- MONOCYTE [2]: 0.5%
- NEUTROPHIL [2]: 12%
- NUCLEATED RED BLOOD CELLS [2]: 0.17 /100WBC
- PLATELET COUNT [2]: 1325.67 x10E3/uL
- ALANINE AMINOTRANSFERASE [2]: 56.17 u/L
- ALBUMIN [2]: 4.23 G/DL
- ALKALINE PHOSPHATASE [2]: 371.5 u/L
- ASPARTATE AMINOTRANSFERASE [2]: 91 u/L
- BLOOD UREA NITROGEN [2]: 15.33 mg/dL
- CARBON DIOXIDE [2]: 27.67 mmol/L
- CHLORIDE [2]: 99.5 MEQ/L
- CHOLESTEROL [2]: 66.5 mg/dL
- CREATINE PHOSPHOKINASE [2]: 518.5 u/L
- CREATININE [2]: 0.18 mg/dL
- GLUCOSE [2]: 143.33 mg/dL
- LACTATE DEHYDROGENASE [2]: 238.83 u/L
- LIPASE [2]: 9.33 u/L
- PHOSPHORUS [2]: 10.68 mg/dL
- POTASSIUM [2]: 6.5 MEQ/L
- SODIUM [2]: 141.88 MEQ/L
- TOTAL BILIRUBIN [2]: 0.18 mg/dL
- TOTAL PROTEIN [2]: 6 G/DL
- URIC ACID [2]: 1.63 mg/dL
- ABSOLUTE BASOPHIL [3]: 0 CELLS/uL
- ABSOLUTE EOSINOPHIL [3]: 0 CELLS/uL
- ABSOLUTE LYMPHOCYTE [3]: 15419.33 CELLS/uL
- ABSOLUTE MONOCYTE [3]: 122.67 CELLS/uL
- ABSOLUTE SEGMENTED NEUTROPHIL [3]: 2191.33 CELLS/uL
- BASOPHIL [3]: 0%
- EOSINOPHIL [3]: 0%
- ERYTHROCYTE COUNT [3]: 5.84 x10E6/uL
- HEMATOCRIT [3]: 35.27%
- HEMOGLOBIN [3]: 13.6 G/DL
- LEUKOCYTE COUNT [3]: 17.73 x10E3/uL
- LYMPHOCYTE [3]: 87%
- MEAN CORPUSCULAR HEMOGLOBIN [3]: 23.23 pg
- MEAN CORPUSCULAR HEMOGLOBIN CONCENTRATION [3]: 38.57 G/DL
- MEAN CORPUSCULAR VOLUME [3]: 60.37 fL
- MONOCYTE [3]: 0.67%
- NEUTROPHIL [3]: 12.33%
- NUCLEATED RED BLOOD CELLS [3]: 0 /100WBC
- PLATELET COUNT [3]: 1290.67 x10E3/uL
- ALANINE AMINOTRANSFERASE [3]: 45.33 u/L
- ALBUMIN [3]: 3.9 G/DL
- ALKALINE PHOSPHATASE [3]: 319 u/L
- ASPARTATE AMINOTRANSFERASE [3]: 93.67 u/L
- BLOOD UREA NITROGEN [3]: 18.33 mg/dL
- CARBON DIOXIDE [3]: 27.33 mmol/L
- CHLORIDE [3]: 101.67 MEQ/L
- CHOLESTEROL [3]: 75 mg/dL
- CREATINE PHOSPHOKINASE [3]: 321.67 u/L
- CREATININE [3]: 0.19 mg/dL
- GLUCOSE [3]: 140.33 mg/dL
- LACTATE DEHYDROGENASE [3]: 166 u/L
- LIPASE [3]: 9.67 u/L
- PHOSPHORUS [3]: 10.43 mg/dL
- POTASSIUM [3]: 6.56 MEQ/L
- SODIUM [3]: 141.9 MEQ/L
- TOTAL BILIRUBIN [3]: 0.17 mg/dL
- TOTAL PROTEIN [3]: 5.63 G/DL
- URIC ACID [3]: 1.87 mg/dL
